Residues, ends and D or L forms follow the SMILES beside them. *: point of attachment. Cbz = O=C(OCc1ccccc1)*
Legend:
[1] = molecular target: T1, SHP2 (Homo sapiens, UniProt Q06124); experiment: SHP2 degradation by Western blotting in HEK293 cells; assay type: cell-based; set-up: endogenous in cells; host or cells: HEK293; settings: for effect on P9-induced SHP2 degradation: HEK293, 16 h, 250 nM P9 in combination with 1 µM 3, 10 µM MG132, 1 µM MLN4924, 40 µM VHL-2 or 40 µM Lenalidomide; for SHP2 degradation (in words) / Degradation at 1 μM / Degradation at 10 μM: HEK293 cells; for SHP2 degradation (in words): 1 and 10 µM; for Degradation at 1 μM / Degradation at 10 μM: 16 h treatment
T1 sequence (Q06124 1-593): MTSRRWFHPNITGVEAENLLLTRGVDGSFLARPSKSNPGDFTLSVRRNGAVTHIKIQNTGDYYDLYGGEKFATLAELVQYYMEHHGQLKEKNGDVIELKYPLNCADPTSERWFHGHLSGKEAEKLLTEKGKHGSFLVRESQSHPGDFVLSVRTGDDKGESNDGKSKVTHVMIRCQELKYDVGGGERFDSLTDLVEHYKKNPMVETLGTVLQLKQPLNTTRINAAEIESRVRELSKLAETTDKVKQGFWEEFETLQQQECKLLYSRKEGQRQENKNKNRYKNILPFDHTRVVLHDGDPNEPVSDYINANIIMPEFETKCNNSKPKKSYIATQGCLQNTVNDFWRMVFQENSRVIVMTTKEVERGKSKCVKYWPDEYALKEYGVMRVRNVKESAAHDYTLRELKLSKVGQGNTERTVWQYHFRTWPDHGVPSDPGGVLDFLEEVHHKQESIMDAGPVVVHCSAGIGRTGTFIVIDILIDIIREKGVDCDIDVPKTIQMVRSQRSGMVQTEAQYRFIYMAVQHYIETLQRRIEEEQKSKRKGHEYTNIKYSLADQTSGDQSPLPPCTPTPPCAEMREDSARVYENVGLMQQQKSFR
Protocol: HEK293, SKBR3, U2OS, MCF7 and A549 cells were grown in DMEM supplemented with 10% FBS, penicillin (50 units/mL), and streptomycin (50 μg/mL) in a 37 °C incubator containing 5% CO2. […] For western-blot analysis, protein samples were separated by SDS-PAGE, transferred to nitrocellulose membranes, and incubated overnight at 4 °C with corresponding primary antibodies diluted in 5% BSA in phosphate-buffered saline Tween (PBST). SuperSignal™ West Pico PLUS (PI34580; Thermo Scientific) was used to visualize the antibodies in the bioanalytical imaging system (Azure Biosystems c500). […] Anti-PTP1B (ab244207) antibody was purchased from Abcam. For colony formation assay, a total of approximately 200–500 cells were seeded to each well in a 12-well plate.
Supplemental Figures, Schemes, and Tables:
Figure S1. Western blots of degradation assay for PROTAC screening. (A) Degradation assay of
compo un ds i n Table 1 at 1 μM fo r 16 hours in H EK29 3 cells. (B) Degradation assay of compounds in Table
1 at 10 μM for 16 hours in HEK293 cells. (C) Degradation assay of compounds in Table 2 at 1 μM for 16

[2] = molecular target: T2, full-length SHP2 (1-528) (Homo sapiens, UniProt Q06124); experiment: SHP2 allosteric inhibition assay (DiFMUP substrate); assay type: biochemical; settings: full length SHP2, enzymatic assay
T2 construct: The SHP2 protein (Aa 1–528) was cloned into a pET-21a(+) vector; His; made in house; host or cells: E. coli BL21(DE3)
T2 sequence (Q06124 1-528): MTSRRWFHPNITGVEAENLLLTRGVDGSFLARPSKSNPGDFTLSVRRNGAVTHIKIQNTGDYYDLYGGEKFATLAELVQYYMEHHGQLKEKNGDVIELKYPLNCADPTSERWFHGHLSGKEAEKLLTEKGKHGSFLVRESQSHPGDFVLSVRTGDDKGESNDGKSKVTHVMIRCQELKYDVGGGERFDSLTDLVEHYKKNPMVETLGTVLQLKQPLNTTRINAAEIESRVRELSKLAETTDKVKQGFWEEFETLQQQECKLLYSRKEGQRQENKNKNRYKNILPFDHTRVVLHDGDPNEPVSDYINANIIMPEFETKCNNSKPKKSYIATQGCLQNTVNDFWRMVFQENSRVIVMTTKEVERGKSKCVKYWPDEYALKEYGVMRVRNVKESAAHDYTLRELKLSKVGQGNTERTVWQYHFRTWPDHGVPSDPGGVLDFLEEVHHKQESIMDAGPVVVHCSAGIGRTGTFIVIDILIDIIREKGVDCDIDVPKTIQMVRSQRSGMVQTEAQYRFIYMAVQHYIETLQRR
Protocol: The SHP2 protein (Aa 1–528) was cloned into a pET-21a(+) vector. Bacterial BL21(DE3) (Novagen) was used as an expression host, and the induction of protein expression was carried out in LB media with 1 mM IPTG at 18 °C overnight. Cell pellets were stored at −80 °C for subsequent protein purification. Protein purification was conducted at 4 °C. Frozen cell pellets were lysed by sonication in 40 mL cold lysis buffer (50 mM Tris-HCl, pH 8.0, 150 mM NaCl, 5 mM imidazole, and 1 mM PMSF) per liter cell pellet. Cell lysates were clarified by centrifuging for 15 min at 6000 rpm. The supernatant was incubated with HisPur Ni-NTA resin (Thermo Scientific, Waltham, MA, USA) for 2 h, and then packed onto a column and washed with 50 resin volume of buffer A (50 mM Tris-HCl, pH 8.0, 500 mM NaCl, 5 mM imidazole). The HIS-tagged proteins were eluted with Buffer B (50 mM Tris-HCl, pH = 8.0, 500 mM NaCl, 300 mM imidazole,). Pooled HIS-protein-containing fractions were concentrated, loaded onto a HiLoad 26/600 Superdex 75 column (GE Healthcare Biosciences, Piscataway, NJ, USA), and eluted with storage buffer (50 mM Tris-HCl, pH 8.0, 150 mM NaCl, 1 mM DTT, 10% glycerol). Proteins used for inhibition assays were purified using Ni-NTA resin (Qiagen, Hilden, Germany) followed by size exclusion column chromatography (ÄKTA pure, Cytiva, Marlborough, MA, USA) and the purity was determined to be >95% by SDS-PAGE and Coomassie staining. The protein was aliquoted and stored at −80 °C.
The catalytic activity of SHP2 (1-528) was assayed with 6,8-Difluoro-4-Methylumbelliferyl Phosphate (DiFMUP, Invitrogen, cat# D6567) as a substrate in 3,3-Dimethylglutaric acid (DMG) buffer (50 mM DMG, pH 7.0, 1 mM EDTA, 18 mM NaCl, 0.01% Triton X-100) at 25 °C. To determine the IC50 values, the assays were performed in 96-well plates (Corning Costar 3915). Series diluted compounds were incubated with 0.5 nM of SHP2 and 0.5 μM of peptide IRS1_pY1172(dPEG8)pY1222 (sequence H2N-LN(pY)IDLDLV(dPEG8)LST(pY)ASINFQK-amide). After 30 min incubation at room temperature, the substrate DiFMUP was added to the reaction (200 μM final concentration, total reaction volume is […]) and incubated at 25 °C for 10 min. The reaction was then quenched by adding 40 μL of 160 μM bpV(Phen) (Sigma–Aldrich, cat# SML0889) solution. The fluorescence signal was monitored with a CLARIOstar Plus Microplate Spectrophotometer (BMG Labtech) using excitation and emission wavelengths of 340 and 450 nm, respectively. The inhibitordose-response curves were analyzed using normalized IC50 regression curve fitting with control-based normalization. Data were fitted using Prism GraphPad 9.2.0.

Structure (SMILES)	effect on P9-induced SHP2 degradation [1]	IC50 [2]	other results
CC(C)C[C@@H](C=O)NC(=O)[C@H](CC(C)C)NC(=O)[C@H](CC(C)C)NC(=O)OCc1ccccc1 [MG-132, reference compound] (Cbz-Leu-Leu-Leu-aldehyde)	markedly reduced the extent of SHP2 degradation		
NS(=O)(=O)OC[C@@H]1C[C@@H](n2ccc3c(N[C@H]4CCc5ccccc54)ncnc32)C[C@@H]1O [MLN-4924, reference compound]	markedly reduced the extent of SHP2 degradation		
Cc1ncsc1-c1ccc([C@H](C)NC(=O)[C@@H]2C[C@@H](O)CN2C(=O)[C@@H](NC(=O)CCOCCOCCOCCNC(=O)CCCCCC2(CN)CCN(c3cnc(Sc4cccc(Cl)c4Cl)c(N)n3)CC2)C(C)(C)C)cc1 [P3, (2S,4R)-1-((S)-22-(1-(6-amino-5-((2,3-dichlorophenyl)thio)pyrazin-2-yl)-4-(aminomethyl)piperidin-4-yl)-2-(tert-butyl)-4,17-dioxo-7,10,13-trioxa-3,16-diazadocosanoyl)-4-hydroxy-N-((S)-1-(4-(4-methylthiazol-5-yl)phenyl)ethyl)pyrrolidine-2-carboxamide]		158 ± 26.5 nM	SHP2 degradation (in words) [1]: did not induce significant degradation of SHP2; Degradation at 1 μM [1]: <10%; Degradation at 10 μM [1]: <10%
Cc1ncsc1-c1ccc([C@H](C)NC(=O)[C@@H]2C[C@@H](O)CN2C(=O)[C@@H](NC(=O)CCOCCOCCOCCOCCNC(=O)CCCCCC2(CN)CCN(c3cnc(Sc4cccc(Cl)c4Cl)c(N)n3)CC2)C(C)(C)C)cc1 [P4, (2S,4R)-1-((S)-25-(1-(6-amino-5-((2,3-dichlorophenyl)thio)pyrazin-2-yl)-4-(aminomethyl)piperidin-4-yl)-2-(tert-butyl)-4,20-dioxo-7,10,13,16-tetraoxa-3,19-diazapentacosanoyl)-4-hydroxy-N-((S)-1-(4-(4-methylthiazol-5-yl)phenyl)ethyl)pyrrolidine-2-carboxamide]		156 ± 15.8 nM	SHP2 degradation (in words) [1]: did not induce significant degradation of SHP2; Degradation at 1 μM [1]: <10%; Degradation at 10 μM [1]: <10%
Cc1ncsc1-c1ccc([C@H](C)NC(=O)[C@@H]2C[C@@H](O)CN2C(=O)[C@@H](NC(=O)CCCCCCCN2CCN(C(=O)CCCCCC3(CN)CCN(c4cnc(Sc5cccc(Cl)c5Cl)c(N)n4)CC3)CC2)C(C)(C)C)cc1 [P7, (2S,4R)-1-((S)-2-(8-(4-(6-(1-(6-amino-5-((2,3-dichlorophenyl)thio)pyrazin-2-yl)-4-(aminomethyl)piperidin-4-yl)hexanoyl)piperazin-1-yl)octanamido)-3,3-dimethylbutanoyl)-4-hydroxy-N-((S)-1-(4-(4-methylthiazol-5-yl)phenyl)ethyl)pyrrolidine-2-carboxamide]		119 ± 25.4 nM	
Cc1ncsc1-c1ccc([C@H](C)NC(=O)[C@@H]2C[C@@H](O)CN2C(=O)[C@@H](NC(=O)CCCCCCCCN2CCN(C(=O)CCCCCC3(CN)CCN(c4cnc(Sc5cccc(Cl)c5Cl)c(N)n4)CC3)CC2)C(C)(C)C)cc1 [P8, (2S,4R)-1-((S)-2-(9-(4-(6-(1-(6-amino-5-((2,3-dichlorophenyl)thio)pyrazin-2-yl)-4-(aminomethyl)piperidin-4-yl)hexanoyl)piperazin-1-yl)nonanamido)-3,3-dimethylbutanoyl)-4-hydroxy-N-((S)-1-(4-(4-methylthiazol-5-yl)phenyl)ethyl)pyrrolidine-2-carboxamide]		104 ± 9.3 nM	
Cc1ncsc1-c1ccc([C@H](C)NC(=O)[C@@H]2C[C@@H](O)CN2C(=O)[C@@H](NC(=O)CCCCCCCCCCN2CCN(C(=O)CCCCCC3(CN)CCN(c4cnc(Sc5cccc(Cl)c5Cl)c(N)n4)CC3)CC2)C(C)(C)C)cc1 [P10, (2S,4R)-1-((S)-2-(11-(4-(6-(1-(6-amino-5-((2,3-dichlorophenyl)thio)pyrazin-2-yl)-4-(aminomethyl)piperidin-4-yl)hexanoyl)piperazin-1-yl)undecanamido)-3,3-dimethylbutanoyl)-4-hydroxy-N-((S)-1-(4-(4-methylthiazol-5-yl)phenyl)ethyl)pyrrolidine-2-carboxamide]		111 ± 8.2 nM	
NCC1(CCCCCC(=O)O)CCN(c2cnc(Sc3cccc(Cl)c3Cl)c(N)n2)CC1 [compound 4]		90 nM	
Nc1cccc2c1CN(C1CCC(=O)NC1=O)C2=O (stereo not drawn) [lenalidomide, reference compound]	did not affect the SHP2 degradation induced by P9		

Source: PMC10574094, “Discovery of a SHP2 Degrader with In Vivo Anti-Tumor Activity” (Molecules, 2023)
